PubChem BioAssay (NCI)
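Briefly, cells in 96-well plates were exposed to five compound concentrations for 48 h, and endpoints were estimated by linear interpolation. The concentration for 50% growth inhibition is given as GI50. TGI: total growth inhibition.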

Columns and labels:
Experiment in all cases: inhibition of tumour cell growth, NCI panel, 48 h
MOLT-4 leukemia = tested on: MOLT-4 leukemia
SNB-19 CNS = tested on: SNB-19 CNS
UACC-257 melanoma = tested on: UACC-257 melanoma
MCF7 breast = tested on: MCF7 breast
MDA-MB-435 = tested on: MDA-MB-435
HL-60(TB) leukemia = tested on: HL-60(TB) leukemia
U251 CNS = tested on: U251 CNS
COLO 205 colon = tested on: COLO 205 colon
EKVX NSCLC = tested on: EKVX NSCLC
DU-145 prostate = tested on: DU-145 prostate
HCT-15 colon = tested on: HCT-15 colon
NCI-H226 lung = tested on: NCI-H226 lung
SF-539 CNS = tested on: SF-539 CNS
HS 578T breast = tested on: HS 578T breast
IGROV1 ovarian = tested on: IGROV1 ovarian
K-562 leukemia = tested on: K-562 leukemia
MDA-MB-231 breast = tested on: MDA-MB-231 breast
HOP-92 NSCLC = tested on: HOP-92 NSCLC
SK-MEL-28 melanoma = tested on: SK-MEL-28 melanoma
MALME-3M melanoma = tested on: MALME-3M melanoma
TK-10 renal = tested on: TK-10 renal
T-47D breast = tested on: T-47D breast
MDA-MB-468 breast = tested on: MDA-MB-468 breast
SK-MEL-5 melanoma = tested on: SK-MEL-5 melanoma
A498 renal = tested on: A498 renal
HT29 colon = tested on: HT29 colon
HCC-2998 colon = tested on: HCC-2998 colon
NCI/ADR-RES ovarian = tested on: NCI/ADR-RES ovarian
M14 melanoma = tested on: M14 melanoma
NCI-H522 lung = tested on: NCI-H522 lung
OVCAR-4 ovarian = tested on: OVCAR-4 ovarian
HCT-116 colon = tested on: HCT-116 colon
SF-295 CNS = tested on: SF-295 CNS
RXF 393 renal = tested on: RXF 393 renal
SW-620 colon = tested on: SW-620 colon
NCI-H460 lung = tested on: NCI-H460 lung
SF-268 CNS = tested on: SF-268 CNS
PC-3 prostate = tested on: PC-3 prostate
RPMI-8226 leukemia = tested on: RPMI-8226 leukemia
SR leukemia = tested on: SR leukemia
LOX IMVI melanoma = tested on: LOX IMVI melanoma
OVCAR-3 ovarian = tested on: OVCAR-3 ovarian
NCI-H23 lung = tested on: NCI-H23 lung
OVCAR-5 ovarian = tested on: OVCAR-5 ovarian
786-0 renal = tested on: 786-0 renal
CAKI-1 renal = tested on: CAKI-1 renal
ACHN renal = tested on: ACHN renal
UACC-62 melanoma = tested on: UACC-62 melanoma
CCRF-CEM leukemia = tested on: CCRF-CEM leukemia
BT-549 breast = tested on: BT-549 breast
SK-OV-3 ovarian = tested on: SK-OV-3 ovarian
OVCAR-8 ovarian = tested on: OVCAR-8 ovarian
HOP-62 NSCLC = tested on: HOP-62 NSCLC
SN12C renal = tested on: SN12C renal
A549 NSCLC = tested on: A549 NSCLC
SNB-75 CNS = tested on: SNB-75 CNS
KM12 colon = tested on: KM12 colon
UO-31 renal = tested on: UO-31 renal
SK-MEL-2 melanoma = tested on: SK-MEL-2 melanoma

For `COP(=O)(CC(F)(F)C(F)(F)F)OC`, the GI50 (MOLT-4 leukemia) was 3.06 µM, the TGI (MOLT-4 leukemia) was 10.8 µM and the GI50 (SNB-19 CNS) was 24.8 µM. For the same compound, the TGI (SNB-19 CNS) was 77 µM, the GI50 (UACC-257 melanoma) was 1.94 µM and the TGI (UACC-257 melanoma) was 5.83 µM. The GI50 (MCF7 breast) was 2.05 µM, the TGI (MCF7 breast) was 10.5 µM and the GI50 (MDA-MB-435) was 6.7 µM. For the same compound, the TGI (MDA-MB-435) was 22.4 µM, the GI50 (HL-60(TB) leukemia) was 2.15 µM and the TGI (HL-60(TB) leukemia) was 5.33 µM. The GI50 (U251 CNS) was 17.6 µM, the TGI (U251 CNS) was 38 µM and the GI50 (COLO 205 colon) was 1.99 µM. The TGI (COLO 205 colon) was 3.62 µM, the GI50 (EKVX NSCLC) was 2.71 µM and the TGI (EKVX NSCLC) was 8.33 µM. It also gave a GI50 (DU-145 prostate) of 10.5 µM, a TGI (DU-145 prostate) of 24.5 µM and a GI50 (HCT-15 colon) of 1.76 µM. It also gave a TGI (HCT-15 colon) of 4.93 µM, a GI50 (NCI-H226 lung) of 23.2 µM and a TGI (NCI-H226 lung) of 73.1 µM. It also gave a GI50 (SF-539 CNS) of 2.55 µM, a TGI (SF-539 CNS) of 7.21 µM and a GI50 (HS 578T breast) of 15.1 µM. It also gave a TGI (HS 578T breast) of 79.4 µM, a GI50 (IGROV1 ovarian) of 19.9 µM and a TGI (IGROV1 ovarian) of 42.5 µM. For the same compound, the GI50 (K-562 leukemia) was 2.93 µM, the TGI (K-562 leukemia) was 14.3 µM and the GI50 (MDA-MB-231 breast) was 8.95 µM. For the same compound, the TGI (MDA-MB-231 breast) was 22.9 µM, the GI50 (HOP-92 NSCLC) was 3.89 µM and the TGI (HOP-92 NSCLC) was 13.1 µM. It also gave a GI50 (SK-MEL-28 melanoma) of 1.87 µM, a TGI (SK-MEL-28 melanoma) of 3.89 µM and a GI50 (MALME-3M melanoma) of 2.32 µM. It also gave a TGI (MALME-3M melanoma) of 5.62 µM, a GI50 (TK-10 renal) of 3.08 µM and a TGI (TK-10 renal) of 7.36 µM. For the same compound, the GI50 (T-47D breast) was 2.36 µM, the TGI (T-47D breast) was 7.99 µM and the GI50 (MDA-MB-468 breast) was 1.35 µM. It also gave a TGI (MDA-MB-468 breast) of 3.16 µM, a GI50 (SK-MEL-5 melanoma) of 5.98 µM and a TGI (SK-MEL-5 melanoma) of 19.2 µM. The GI50 (A498 renal) was 22.1 µM, the TGI (A498 renal) was 41.1 µM and the GI50 (HT29 colon) was 2.46 µM. The TGI (HT29 colon) was 5.17 µM, the GI50 (HCC-2998 colon) was 13.6 µM and the TGI (HCC-2998 colon) was 27 µM. The GI50 (NCI/ADR-RES ovarian) was 2.83 µM, the TGI (NCI/ADR-RES ovarian) was 10.2 µM and the GI50 (M14 melanoma) was 1.8 µM. The TGI (M14 melanoma) was 3.77 µM, the GI50 (NCI-H522 lung) was 1.48 µM and the TGI (NCI-H522 lung) was 3.02 µM. It also gave a GI50 (OVCAR-4 ovarian) of 14 µM, a TGI (OVCAR-4 ovarian) of 30 µM and a GI50 (HCT-116 colon) of 2.21 µM. It also gave a TGI (HCT-116 colon) of 5.99 µM, a GI50 (SF-295 CNS) of 16.5 µM and a TGI (SF-295 CNS) of 31.8 µM. For the same compound, the GI50 (RXF 393 renal) was 1.33 µM, the TGI (RXF 393 renal) was 2.92 µM and the GI50 (SW-620 colon) was 2.04 µM. The TGI (SW-620 colon) was 4.2 µM, the GI50 (NCI-H460 lung) was 18 µM and the TGI (NCI-H460 lung) was 38.1 µM. For the same compound, the GI50 (SF-268 CNS) was 24.2 µM, the TGI (SF-268 CNS) was 64.2 µM and the GI50 (PC-3 prostate) was 7.87 µM. The TGI (PC-3 prostate) was 25.2 µM, the GI50 (RPMI-8226 leukemia) was 3.07 µM and the TGI (RPMI-8226 leukemia) was 8.49 µM. It also gave a GI50 (SR leukemia) of 3.15 µM, a TGI (SR leukemia) of 12.2 µM and a GI50 (LOX IMVI melanoma) of 1.7 µM. For the same compound, the TGI (LOX IMVI melanoma) was 3.54 µM, the GI50 (OVCAR-3 ovarian) was 3.44 µM and the TGI (OVCAR-3 ovarian) was 12.1 µM. The GI50 (NCI-H23 lung) was 7.36 µM, the TGI (NCI-H23 lung) was 21.4 µM and the GI50 (OVCAR-5 ovarian) was 17.5 µM. It also gave a TGI (OVCAR-5 ovarian) of 32.2 µM, a GI50 (786-0 renal) of 6.27 µM and a TGI (786-0 renal) of 20.4 µM. The GI50 (CAKI-1 renal) was 2.6 µM, the TGI (CAKI-1 renal) was 6.49 µM and the GI50 (ACHN renal) was 2.12 µM. It also gave a TGI (ACHN renal) of 4.52 µM, a GI50 (UACC-62 melanoma) of 4.95 µM and a TGI (UACC-62 melanoma) of 18 µM. It also gave a GI50 (CCRF-CEM leukemia) of 2.43 µM, a TGI (CCRF-CEM leukemia) of 8.68 µM and a GI50 (BT-549 breast) of 6.26 µM. The TGI (BT-549 breast) was 20.4 µM, the GI50 (SK-OV-3 ovarian) was 30.1 µM and the TGI (SK-OV-3 ovarian) was 76.1 µM. It also gave a GI50 (OVCAR-8 ovarian) of 17.2 µM, a TGI (OVCAR-8 ovarian) of 84.2 µM and a GI50 (HOP-62 NSCLC) of 22.7 µM. For the same compound, the TGI (HOP-62 NSCLC) was 52.7 µM, the GI50 (SN12C renal) was 18.5 µM and the TGI (SN12C renal) was 37.5 µM. For the same compound, the GI50 (A549 NSCLC) was 22.1 µM, the TGI (A549 NSCLC) was 53.1 µM and the GI50 (SNB-75 CNS) was 4.93 µM. It also gave a TGI (SNB-75 CNS) of 55.3 µM, a GI50 (KM12 colon) of 19.4 µM and a TGI (KM12 colon) of 40.1 µM. For the same compound, the GI50 (UO-31 renal) was 1.71 µM, the TGI (UO-31 renal) was 3.64 µM and the GI50 (SK-MEL-2 melanoma) was 16.3 µM. It also gave a TGI (SK-MEL-2 melanoma) of 38.4 µM.
